Test results reported in patent publication US7108865B2, “Controlled-release dosage forms of azithromycin” (Pfizer Inc, priority 1994, dated 2006).

Legend:
[1] = Visual Analogue Scale gastrointestinal side effects after 2 g oral capsule dose, single vs divided (Example 1); type: in vivo, human; set-up: key to Mean Cumulative Score (Visual Analogue Scale), abdominal pain / Mean Cumulative Score (Visual Analogue Scale), nausea / Mean Cumulative Score (Visual Analogue Scale), regurgitation / Mean Cumulative Score (Visual Analogue Scale), abdominal cramping: per-subject sum of 0–10 VAS scores over 240 h, averaged over group; settings: for Incidence of Visual-Analogue-Scale score >1, abdominal cramping / Incidence of Visual-Analogue-Scale score >1, abdominal pain / Incidence of Visual-Analogue-Scale score >1, nausea / Incidence of Visual-Analogue-Scale score >1, regurgitation / Incidence of Visual-Analogue-Scale score >4, abdominal cramping / Incidence of Visual-Analogue-Scale score >4, abdominal pain / Incidence of Visual-Analogue-Scale score >4, nausea / Incidence of Visual-Analogue-Scale score >4, regurgitation: any time during 240 hr post-dose, #patients reporting score/total # patients; for Mean Cumulative Score (Visual Analogue Scale), abdominal cramping / Mean Cumulative Score (Visual Analogue Scale), abdominal pain / Mean Cumulative Score (Visual Analogue Scale), nausea / Mean Cumulative Score (Visual Analogue Scale), regurgitation: entire 240 hour post-dose period
Description: In a double-blind, randomized, placebo-controlled parallel group study, healthy male subjects were divided into three groups. Group A received a single 2 g azithromycin dose as eight 250 mg azithromycin capsules (“bolus dosing” group). Group B received the same total dose, administered as eight 250 mg capsules at the rate of one 250 mg capsule each 30 minutes for 3.5 hr (“divided dosing” group). Group C received matching placebo capsules. All subjects received eight capsules of drug or placebo at time 0, and a capsule of drug or placebo every half-hour for 3.5 hr. All subjects were dosed after an overnight fast. […] Tmax is the time at which Cmax is achieved.
(§1) Prior to dosing and each blood sampling time, each subject filled out a questionnaire, which consisted of a series of “Visual Analogue Scales” in which the subject was required to rate, on a scale of 0–10, the severity of certain potential side effects. The subjects were instructed that “0” indicated an absent effect and “10” indicated the worst possible effect. The subjects were instructed to interpolate between 0 and 10 for moderate side effects.
(§2) Analysis of side effect visual-analogue-scale data was carried out in two formats. In the first format (Table II), the analysis concentrated on the general incidence of side effects of a particular type. For each side effect type (e.g., abdominal pain), Table II reports the number of subjects who reported a score >1 at any time during the 240 hr post-dosing, and the number of subjects who reported a score >4 at any time during the 240 hr post-dosing. This analysis assumes that all scores >1 represent a real side effect occurrence, however mild or severe. A score >4 is presumed to reflect a moderate-to-severe side effect occurrence.
In the second format (Table III), the analysis reflects the general severity and duration of side effects. For a particular side effect (e.g., Abdominal Pain) in a particular subject, all visual-analogue-scale scores (over the 240 hr post-dose period) were summed to give a “cumulative score” over the entire time period of evaluation. “Cumulative scores” for all members of a treatment group were summed, and divided by the number of subjects in the group, to give a Mean Cumulative Score. […] Table III presents Mean Cumulative Scores for abdominal pain, nausea, regurgitation, and abdominal cramping.

[2] = Visual Analogue Scale gastrointestinal side effects after 2 hr intravenous infusion (Example 3); type: in vivo, human; set-up: key to Mean Cumulative Score (Visual Analogue Scale), abdominal pain / Mean Cumulative Score (Visual Analogue Scale), nausea / Mean Cumulative Score (Visual Analogue Scale), regurgitation / Mean Cumulative Score (Visual Analogue Scale), abdominal cramping: sum over 240 h of 0–10 VAS severity scores, averaged per subject; settings: not corrected for placebo effects; for Incidence of Visual-Analogue-Scale score >1, abdominal cramping / Incidence of Visual-Analogue-Scale score >1, abdominal pain / Incidence of Visual-Analogue-Scale score >1, nausea / Incidence of Visual-Analogue-Scale score >1, regurgitation / Incidence of Visual-Analogue-Scale score >4, abdominal cramping / Incidence of Visual-Analogue-Scale score >4, abdominal pain / Incidence of Visual-Analogue-Scale score >4, nausea / Incidence of Visual-Analogue-Scale score >4, regurgitation: any time during 240 hour post-dose; for Mean Cumulative Score (Visual Analogue Scale), abdominal cramping / Mean Cumulative Score (Visual Analogue Scale), abdominal pain / Mean Cumulative Score (Visual Analogue Scale), nausea / Mean Cumulative Score (Visual Analogue Scale), regurgitation: entire 240 hour post-dose period
Description: Healthy male subjects were divided into four groups. Group A received a 2 hr intravenous infusion of a placebo solution (0 g azithromycin). Group B received a 2 hr intravenous infusion of a 1 g dose of azithromycin. Group C received a 2 hr intravenous infusion of a 2 g dose of azithromycin. Group D received a 2 hr intravenous infusion of a 4 g dose of azithromycin. […] All subjects were dosed after an overnight fast.
as §1
as §2, with “(Table VIII),” for “(Table II),”, “Table VIII” for “Table II”, “[…]” for “scores >1”
In the second format (Table IX), the analysis reflects the general severity and duration of side effects. For a particular side effect (e.g., Abdominal Pain) in a particular subject, all visual-analogue-scale scores (over the 240 hr post-dose period) were summed to give a “cumulative score” over the entire time period of evaluation. “Cumulative scores” for all members of a treatment group were summed, and divided by the number of subjects in the group, to a give a Mean Cumulative Score. […] Table IX presents Mean Cumulative Scores for abdominal pain, nausea, regurgitation, and abdominal cramping.

[3] = 3,995 patients, all dose levels combined, cited from earlier work
[4] = 250 mg per half-hr for 3.5 hr (2 g total), oral
[5] = 250 mg/half-hr for 3.5 hr (2 g total), oral

SMILES: CC[C@H]1OC(=O)[C@H](C)[C@@H](O[C@H]2C[C@@](C)(OC)[C@@H](O)[C@H](C)O2)[C@H](C)[C@@H](O[C@@H]2O[C@H](C)C[C@H](N(C)C)[C@H]2O)[C@](C)(O)C[C@@H](C)CN(C)[C@H](C)[C@@H](O)[C@]1(C)O [azithromycin, 9a-aza-9a-methyl-9-deoxo-9a-homoerythromycin A]
- Incidence of Visual-Analogue-Scale score >1, abdominal cramping [1, 4]: 4/14
- Incidence of Visual-Analogue-Scale score >1, abdominal pain [1, 4]: 6/14
- Incidence of Visual-Analogue-Scale score >1, nausea [1, 4]: 3/14
- Incidence of Visual-Analogue-Scale score >1, regurgitation [1, 4]: 0/14
- Incidence of Visual-Analogue-Scale score >4, abdominal cramping [1, 4]: 0/14
- Incidence of Visual-Analogue-Scale score >4, abdominal pain [1, 4]: 1/14
- Incidence of Visual-Analogue-Scale score >4, nausea [1, 4]: 0/14
- Incidence of Visual-Analogue-Scale score >4, regurgitation [1, 4]: 0/14
- Mean Cumulative Score (Visual Analogue Scale), abdominal cramping [1, 5]: 4.46
- Mean Cumulative Score (Visual Analogue Scale), abdominal pain [1, 5]: 6.31
- Mean Cumulative Score (Visual Analogue Scale), nausea [1, 5]: 2.77
- Mean Cumulative Score (Visual Analogue Scale), regurgitation [1, 5]: 1.38
- Incidence of Visual-Analogue-Scale score >1, abdominal cramping ([1]; 2 g single oral dose): 6/15
- Incidence of Visual-Analogue-Scale score >1, abdominal pain ([1]; 2 g single oral dose): 6/15
- Incidence of Visual-Analogue-Scale score >1, nausea ([1]; 2 g single oral dose): 2/15
- Incidence of Visual-Analogue-Scale score >1, regurgitation ([1]; 2 g single oral dose): 0/15
- Incidence of Visual-Analogue-Scale score >4, abdominal cramping ([1]; 2 g single oral dose): 1/15
- Incidence of Visual-Analogue-Scale score >4, abdominal pain ([1]; 2 g single oral dose): 2/15
- Incidence of Visual-Analogue-Scale score >4, nausea ([1]; 2 g single oral dose): 1/15
- Incidence of Visual-Analogue-Scale score >4, regurgitation ([1]; 2 g single oral dose): 0/15
- Mean Cumulative Score (Visual Analogue Scale), abdominal cramping ([1]; 2 g single oral dose): 4.67
- Mean Cumulative Score (Visual Analogue Scale), abdominal pain ([1]; 2 g single oral dose): 6.4
- Mean Cumulative Score (Visual Analogue Scale), nausea ([1]; 2 g single oral dose): 1.93
- Mean Cumulative Score (Visual Analogue Scale), regurgitation ([1]; 2 g single oral dose): 0.53
- Incidence of Visual-Analogue-Scale score >1, abdominal cramping ([2]; 1 g IV over 2 hr): 0/5
- Incidence of Visual-Analogue-Scale score >1, abdominal pain ([2]; 1 g IV over 2 hr): 1/5
- Incidence of Visual-Analogue-Scale score >1, nausea ([2]; 1 g IV over 2 hr): 0/5
- Incidence of Visual-Analogue-Scale score >1, regurgitation ([2]; 1 g IV over 2 hr): 0/5
- Incidence of Visual-Analogue-Scale score >4, abdominal cramping ([2]; 1 g IV over 2 hr): 0/5
- Incidence of Visual-Analogue-Scale score >4, abdominal pain ([2]; 1 g IV over 2 hr): 0/5
- Incidence of Visual-Analogue-Scale score >4, nausea ([2]; 1 g IV over 2 hr): 0/5
- Incidence of Visual-Analogue-Scale score >4, regurgitation ([2]; 1 g IV over 2 hr): 0/5
- Mean Cumulative Score (Visual Analogue Scale), abdominal cramping ([2]; 1.0 g IV, n 6): 0.5
- Mean Cumulative Score (Visual Analogue Scale), abdominal pain ([2]; 1.0 g IV, n 6): 1.5
- Mean Cumulative Score (Visual Analogue Scale), nausea ([2]; 1.0 g IV, n 6): 0
- Mean Cumulative Score (Visual Analogue Scale), regurgitation ([2]; 1.0 g IV, n 6): 0
- Incidence of Visual-Analogue-Scale score >1, abdominal cramping ([2]; 2 g IV over 2 hr): 1/6
- Incidence of Visual-Analogue-Scale score >1, abdominal pain ([2]; 2 g IV over 2 hr): 2/6
- Incidence of Visual-Analogue-Scale score >1, nausea ([2]; 2 g IV over 2 hr): 4/6
- Incidence of Visual-Analogue-Scale score >1, regurgitation ([2]; 2 g IV over 2 hr): 1/6
- Incidence of Visual-Analogue-Scale score >4, abdominal cramping ([2]; 2 g IV over 2 hr): 1/6
- Incidence of Visual-Analogue-Scale score >4, abdominal pain ([2]; 2 g IV over 2 hr): 1/6
- Incidence of Visual-Analogue-Scale score >4, nausea ([2]; 2 g IV over 2 hr): 2/6
- Incidence of Visual-Analogue-Scale score >4, regurgitation ([2]; 2 g IV over 2 hr): 0/6
- Mean Cumulative Score (Visual Analogue Scale), abdominal cramping ([2]; 2.0 g IV, n 6): 3.8
- Mean Cumulative Score (Visual Analogue Scale), abdominal pain ([2]; 2.0 g IV, n 6): 5.7
- Mean Cumulative Score (Visual Analogue Scale), nausea ([2]; 2.0 g IV, n 6): 13.2
- Mean Cumulative Score (Visual Analogue Scale), regurgitation ([2]; 2.0 g IV, n 6): 0.5
- Incidence of Visual-Analogue-Scale score >1, abdominal cramping ([2]; 4 g IV over 2 hr): 4/5
- Incidence of Visual-Analogue-Scale score >1, abdominal pain ([2]; 4 g IV over 2 hr): 4/5
- Incidence of Visual-Analogue-Scale score >1, nausea ([2]; 4 g IV over 2 hr): 3/5
- Incidence of Visual-Analogue-Scale score >1, regurgitation ([2]; 4 g IV over 2 hr): 1/5
- Incidence of Visual-Analogue-Scale score >4, abdominal cramping ([2]; 4 g IV over 2 hr): 2/5
- Incidence of Visual-Analogue-Scale score >4, abdominal pain ([2]; 4 g IV over 2 hr): 0/5
- Incidence of Visual-Analogue-Scale score >4, nausea ([2]; 4 g IV over 2 hr): 2/5
- Incidence of Visual-Analogue-Scale score >4, regurgitation ([2]; 4 g IV over 2 hr): 1/5
- Mean Cumulative Score (Visual Analogue Scale), abdominal cramping ([2]; 4.0 g IV, n 5): 11.8
- Mean Cumulative Score (Visual Analogue Scale), abdominal pain ([2]; 4.0 g IV, n 5): 12.8
- Mean Cumulative Score (Visual Analogue Scale), nausea ([2]; 4.0 g IV, n 5): 10.6
- Mean Cumulative Score (Visual Analogue Scale), regurgitation ([2]; 4.0 g IV, n 5): 3.8
- patients reporting gastrointestinal side effects ([3]; oral): 9.6%
- incidence of abdominal pain [3]: 2.5%
- incidence of diarrhea [3]: 3.6%
- incidence of nausea [3]: 2.6%
